Source: patent US20250092016A1, “COMPOUNDS AND COMPOSITIONS FOR THE TREATMENT OF CORONAVIRAL RELATED DISEASES” (priority 2021, published 2025)
Like-named read-outs stand apart in the source and are kept apart here.

Biological target: SARS-CoV-2 main protease (M^pro) (Severe acute respiratory syndrome coronavirus 2, UniProt P0DTD1)
Assay: Rapid-Fire MS Biochemical Assay measuring Mpro activity (5 nM Mpro)
Conditions: Mpro inhibition, 5 μM substrate peptide, 120 min
[1] = Table 1B, read-out: Rapid-Fire Assay IC50
[2] = Rapid-Fire Assay IC50, Table 1B

Row | SMILES | IC50 [1] | IC50 [2]
1 | Cc1cc(Cl)cnc1N1CC(C#N)N(c2cncc3ccccc23)C1=O (racemic) [Compound 80, 1-(5-chloro-3-methylpyridin-2-yl)-3-(isoquinolin-4-yl)-2-oxoimidazolidine-4-carbonitrile] | 20 to 200 nM | 
2 | CC1CC(N2CC(C#N)N(c3cncc4ccccc34)C2=O)C1 (single isomer, unassigned) [Compound 120a] | < 20 nM | 
3 | N#C[C@@H]1CN(C2CN(CC(F)(F)F)C2)C(=O)N1c1cncc2ccccc12 (single isomer, unassigned) [Compound 133b] | 20 to 200 nM | 
4 | N#C[C@H]1CN(c2ccc(C(F)(F)F)nn2)C(=O)N1c1cncc2ccccc12 (single isomer, unassigned) [Compound 81a] | < 20 nM | 
5 | N#C[C@@H]1CN(c2cccc(Cl)c2)C(=O)N1c1cncc2ccc(C(=O)O)cc12 (single isomer, unassigned) [Compound 33b] | > 1000 nM | 
6 | N#C[C@@H]1CN(c2nc(Cl)c[nH]2)C(=O)N1c1cncc2ccccc12 (single isomer, unassigned) [Compound 119b] | > 1000 nM | 
7 | N#C[C@@H]1CN(c2ccc(C(F)(F)F)cn2)C(=O)N1c1cncc2ccccc12 (single isomer, unassigned) [Compound 97b] | > 1000 nM | 
8 | COc1ccc(C(F)(F)F)cc1N1C[C@H](C#N)N(c2cncc3ccccc23)C1=O (single isomer, unassigned) [Compound 17a] | < 20 nM | 
9 | CC(C)(C)CN1C[C@H](C#N)N(c2cncc3ccccc23)C1=O (single isomer, unassigned) [Compound 140a] | 20 to 200 nM | 
10 | COc1cnc(C(F)(F)F)cc1N1C[C@@H](C#N)N(c2cncc3ccccc23)C1=O (single isomer, unassigned) [Compound 14b] | > 1000 nM | 
11 | Cn1c(C(F)(F)F)ccc(N2C[C@H](C#N)N(c3cncc4ccccc34)C2=O)c1=O (single isomer, unassigned) [Compound 96a] | 20 to 200 nM | 
12 | CC(C)n1cc(N2C[C@@H](C#N)N(c3cncc4ccccc34)C2=O)cn1 (single isomer, unassigned) [Compound 64b] | > 1000 nM | 
13 | N#C[C@@H]1CN(c2ncc(Cl)cn2)C(=O)N1c1cncc2ccccc12 (single isomer, unassigned) [Compound 16b] | 200 to 1000 nM | 
14 | N#Cc1ccc(N2C[C@H](C#N)N(c3cncc4ccccc34)C2=O)cc1 (single isomer, unassigned) [Compound 50a] | < 20 nM | 
15 | N#CC1CN(c2ccnc(C(F)(F)F)c2)C(=O)N1c1cncc2ccccc12 (racemic) [Compound 57, 3-(isoquinolin-4-yl)-2-oxo-1-(2-(trifluoromethyl)pyridin-4-yl)imidazolidine-4-carbonitrile] | < 20 nM | 
16 | N#C[C@H]1CN(C2CN(C3CC3)C2)C(=O)N1c1cncc2ccccc12 (single isomer, unassigned) [Compound 136a] | < 20 nM | 
17 | COc1ccc(C(F)(F)F)cc1N1C[C@@H](C#N)N(c2cncc3ccc(S(C)(=O)=O)cc23)C1=O (single isomer, unassigned) [Compound 38b] | > 1000 nM | 
18 | N#C[C@@H]1CN(c2ccc(OC(F)F)cc2)C(=O)N1c1cncc2ccccc12 (single isomer, unassigned) [Compound 71b] | > 1000 nM | 
19 | Cc1ccc(C(F)(F)F)cc1N1C[C@H](C#N)N(c2cncc3ccccc23)C1=O (single isomer, unassigned) [Compound 24a] | < 20 nM | 

Row | SMILES | IC50 [1] | IC50 [2]
20 | N#C[C@H]1CN([C@H]2CCC(F)(F)C2)C(=O)N1c1cncc2ccccc12 (single isomer, unassigned) [Compound 141d, (R)-1-((S)-3,3-difluorocyclopentyl)-3-(isoquinolin-4-yl)-2-oxoimidazolidine-4-carbonitrile or (R)-1-((R)-3,3-difluorocyclopentyl)-3-(isoquinolin-4-yl)-2-oxoimidazolidine-4-carbonitrile] | 20 to 200 nM | 
21 | N#C[C@H]1CN(c2cccc3cn[nH]c23)C(=O)N1c1cncc2ccccc12 (single isomer, unassigned) [Compound 63a] | < 20 nM | 
22 | N#Cc1ccc(C(F)(F)F)cc1N1C[C@@H](C#N)N(c2cncc3ccccc23)C1=O (single isomer, unassigned) [Compound 90b] | > 1000 nM | 
23 | N#C[C@H]1CN(c2ccccc2F)C(=O)N1c1cncc2ccccc12 (single isomer, unassigned) [Compound 56a] | 20 to 200 nM | 
24 | N#Cc1cc(Cl)ccc1N1C[C@H](C#N)N(c2cncc3ccccc23)C1=O (single isomer, unassigned) [Compound 60a] | < 20 nM | 
25 | N#C[C@H]1CN(c2ccnc(C(F)(F)F)c2)C(=O)N1c1cncc2ccccc12 (single isomer, unassigned) [Compound 57a] | < 20 nM | 
26 | N#C[C@@H]1CN(c2ccc(Cl)cn2)C(=O)N1c1cncc2ccccc12 (single isomer, unassigned) [Compound 41b] | 200 to 1000 nM | 
27 | N#CC1CN(C2CCC(F)CC2)C(=O)N1c1cncc2ccccc12 (single isomer, unassigned) [Compound 121b] |  | < 20 nM
28 | CC(C)(O)c1cccc(N2C[C@H](C#N)N(c3cncc4ccccc34)C2=O)c1 (single isomer, unassigned) [Compound 69a] | 20 to 200 nM | 
29 | Cc1ccc(OC(F)F)cc1N1C[C@@H](C#N)N(c2cncc3ccccc23)C1=O (single isomer, unassigned) [Compound 101b] | > 1000 nM | 
30 | N#C[C@@H]1CN(c2cccc(F)n2)C(=O)N1c1cncc2ccccc12 (single isomer, unassigned) [Compound 61b] | > 1000 nM | 
31 | N#C[C@@H]1CN(c2cccc(OC(F)F)c2)C(=O)N1c1cncc2ccccc12 (single isomer, unassigned) [Compound 89b] | > 1000 nM | 
32 | COc1ccc(C(F)(F)F)cc1N1C[C@H](C#N)N(c2cncc3ccc(S(C)(=O)=O)cc23)C1=O (single isomer, unassigned) [Compound 38a] | < 20 nM | 
33 | N#C[C@@H]1CN(c2cnc(C(F)(F)F)nc2)C(=O)N1c1cncc2ccccc12 (single isomer, unassigned) [Compound 93b] | > 1000 nM | 
34 | N#C[C@H]1CN(c2nc(Cl)c[nH]2)C(=O)N1c1cncc2ccccc12 (single isomer, unassigned) [Compound 119a] | 20 to 200 nM | 
35 | Cc1ccc(Cl)cc1N1C[C@@H](C#N)N(c2cncc3ccccc23)C1=O (single isomer, unassigned) [Compound 114b] | > 1000 nM | 
36 | Cn1cc(N2C[C@@H](C#N)N(c3cncc4ccccc34)C2=O)cn1 (single isomer, unassigned) [Compound 65b] | > 1000 nM | 
37 | N#C[C@@H]1CN(c2ccc(F)cc2F)C(=O)N1c1cncc2ccccc12 (single isomer, unassigned) [Compound 66b] | > 1000 nM | 
38 | N#CC1CN(c2ccc(F)cc2F)C(=O)N1c1cncc2ccccc12 (racemic) [Compound 66, 1-(2,4-difluorophenyl)-3-(isoquinolin-4-yl)-2-oxoimidazolidine-4-carbonitrile] | 20 to 200 nM | 

Row | SMILES | IC50 [1] | IC50 [2]
39 | N#C[C@@H]1CN(c2cccc(C(F)(F)F)n2)C(=O)N1c1cncc2ccccc12 (single isomer, unassigned) [Compound 51b] | > 1000 nM | 
40 | CC1CC(N2CC(C#N)N(c3cncc4ccccc34)C2=O)C1 (single isomer, unassigned) [Compound 120c] |  | > 1000 nM
41 | Cn1ccc(N2C[C@@H](C#N)N(c3cncc4ccccc34)C2=O)cc1=O (single isomer, unassigned) [Compound 67b] | > 1000 nM | 
42 | CC(C)n1cc(N2C[C@H](C#N)N(c3cncc4ccccc34)C2=O)cn1 (single isomer, unassigned) [Compound 64a] | < 20 nM | 
43 | N#C[C@H]1CN(c2cc(F)ccc2F)C(=O)N1c1cncc2ccccc12 (single isomer, unassigned) [Compound 109a] | < 20 nM | 
44 | Cc1cc(Cl)cnc1N1C[C@@H](C#N)N(c2cncc3ccccc23)C1=O (single isomer, unassigned) [Compound 80b] | > 1000 nM | 
45 | N#C[C@H]1CN(c2ncc(C(F)(F)F)cn2)C(=O)N1c1cncc2ccccc12 (single isomer, unassigned) [Compound 42a] | < 20 nM | 
46 | COc1cc(N2C[C@@H](C#N)N(c3cncc4ccccc34)C2=O)ccn1 (single isomer, unassigned) [Compound 23b] | > 1000 nM | 
47 | COc1cc(C#N)ccc1N1CC(C#N)N(c2cncc3ccccc23)C1=O (racemic) [Compound 19, 1-(4-cyano-2-methoxyphenyl)-3-(isoquinolin-4-yl)-2-oxoimidazolidine-4-carbonitrile] | 200 to 1000 nM | 
48 | N#C[C@@H]1CN(c2ccc(F)nc2)C(=O)N1c1cncc2ccccc12 (single isomer, unassigned) [Compound 55b] | > 1000 nM | 
49 | N#C[C@H]1CN(c2cccc(OC(F)F)c2)C(=O)N1c1cncc2ccccc12 (single isomer, unassigned) [Compound 89a] | < 20 nM | 
50 | COc1cc(C(F)(F)F)ncc1N1C[C@@H](C#N)N(c2cncc3ccccc23)C1=O (single isomer, unassigned) [Compound 107b] | > 1000 nM | 
51 | N#CC1CN(c2cccc(Cl)c2)C(=O)N1c1cncc2ccc(C(N)=O)cc12 (centres unmarked) [Compound 35, 4-(3-(3-chlorophenyl)-5-cyano-2-oxoimidazolidin-1-yl)isoquinoline-6-carboxamide] | < 20 nM | 
52 | CS(=O)(=O)c1ccc2cncc(N3C(=O)N(c4cccc(Cl)c4)CC3C#N)c2c1 (racemic) [Compound 37, 1-(3-chlorophenyl)-3-(6-(methylsulfonyl)isoquinolin-4-yl)-2-oxoimidazolidine-4-carbonitrile] | < 20 nM | 
53 | COc1cc(C#N)ccc1N1C[C@@H](C#N)N(c2cncc3ccccc23)C1=O (single isomer, unassigned) [Compound 19b] | > 1000 nM | 
54 | N#C[C@@H]1CN(c2ccc(OC(F)(F)F)cc2)C(=O)N1c1cncc2ccccc12 (single isomer, unassigned) [Compound 91b] | > 1000 nM | 
55 | CC(C)(O)c1ccc(N2C[C@H](C#N)N(c3cncc4ccccc34)C2=O)cc1 (single isomer, unassigned) [Compound 84a] | 20 to 200 nM | 
56 | N#C[C@H]1CN(c2cc(Cl)cnn2)C(=O)N1c1cncc2ccccc12 (single isomer, unassigned) [Compound 54a] | 20 to 200 nM | 
